Peptide text beside a SMILES is read from it.
Target: Cytochrome P450 3A4 (Homo sapiens, UniProt P08684)
Experiment: Binding affinity to recombinant CYP3A4 expressed in Escherichia coli assessed as spectral dissociation constant by spectrophotometric equilibrium binding titration method
Format: ADME
Details: read-out: K

Chain of Cytochrome P450 3A4 (P08684 whole entry): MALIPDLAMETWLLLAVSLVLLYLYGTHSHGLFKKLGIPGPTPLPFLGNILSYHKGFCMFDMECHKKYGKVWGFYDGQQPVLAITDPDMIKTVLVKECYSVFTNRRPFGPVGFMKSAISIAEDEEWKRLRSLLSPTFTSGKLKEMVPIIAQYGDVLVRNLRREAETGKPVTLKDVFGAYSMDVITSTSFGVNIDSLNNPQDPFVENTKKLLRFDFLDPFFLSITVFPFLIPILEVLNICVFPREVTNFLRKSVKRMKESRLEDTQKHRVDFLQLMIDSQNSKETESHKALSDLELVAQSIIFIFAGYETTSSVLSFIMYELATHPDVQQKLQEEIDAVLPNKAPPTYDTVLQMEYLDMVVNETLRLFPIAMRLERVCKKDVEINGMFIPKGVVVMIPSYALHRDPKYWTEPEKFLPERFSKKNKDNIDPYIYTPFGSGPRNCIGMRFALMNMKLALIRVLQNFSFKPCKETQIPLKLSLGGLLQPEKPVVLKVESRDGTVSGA

**Q.** `NC(=O)[C@@H]1CCCN1C(=O)[C@H](Cc1ccccc1)NC(=O)[C@@H]1CCCN1C(=O)[C@@H](N)Cc1ccc(O)cc1` [MORPHICEPTIN] (H-YPFP-NH2) was tested. Which Kd did it give?
**A.** The Kd was 7.8 mM.

— ChEMBL document CHEMBL1156433, “Multiple sequential steps involved in the binding of inhibitors to cytochrome P450 3A4” (J Biol Chem, 2007)
